Laboratory results: patent US9434733B2, “PDE9 inhibitors with imidazo triazinone backbone” (H. Lundbeck A/S, priority 2012, dated 2016)
pIC50: −log10 of the molar value.

Biological target: PDE9 (Homo sapiens (Human), UniProt O76083)
Assay: PDE9 inhibition assay
Format: biochemical
Conditions: 10 nM 3H-cAMP, 1 hour incubation, yttrium silicate SPA beads; read-out: PDE9_IC50
Protocol: Reactions are initiated by addition of the cyclic nucleotide substrate, and reactions are allowed to proceed for one hr at room temperature before being terminated through mixing with 15 uL 8 mg/mL yttrium silicate SPA beads (Amersham).
Following a 1 hour incubation the reactions were terminated by addition of 15 uL 8 mg/mL yttrium silicate SPA beads (Amersham). […] IC50 values were calculated by non linear regression using XLfit (IDBS).

Chain of PDE9 (O76083 whole entry): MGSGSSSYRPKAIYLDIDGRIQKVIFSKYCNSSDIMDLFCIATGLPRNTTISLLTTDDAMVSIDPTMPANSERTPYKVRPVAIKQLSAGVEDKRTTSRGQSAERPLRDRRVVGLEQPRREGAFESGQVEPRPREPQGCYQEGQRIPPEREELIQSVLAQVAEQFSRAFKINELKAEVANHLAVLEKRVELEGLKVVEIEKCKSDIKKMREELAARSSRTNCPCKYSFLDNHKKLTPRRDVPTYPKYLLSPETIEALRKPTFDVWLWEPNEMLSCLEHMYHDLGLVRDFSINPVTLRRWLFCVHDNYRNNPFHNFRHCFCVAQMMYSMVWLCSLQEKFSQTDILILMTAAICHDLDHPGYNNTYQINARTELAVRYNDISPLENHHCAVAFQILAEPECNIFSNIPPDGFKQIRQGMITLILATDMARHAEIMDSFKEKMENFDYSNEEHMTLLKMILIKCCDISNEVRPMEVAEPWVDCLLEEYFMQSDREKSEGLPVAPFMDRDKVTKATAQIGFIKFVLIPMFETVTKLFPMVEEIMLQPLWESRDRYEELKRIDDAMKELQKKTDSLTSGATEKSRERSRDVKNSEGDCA

O=c1[nH]c(CN2CC(Oc3cccnc3)C2)nn2c(C3CCOCC3)ncc12 [2-[[3-(3-pyridyloxy)azetidin-1-yl]methyl]-7-tetrahydropyran-4-yl-3H-imidazo[5,1-f][1,2,4]triazin-4-one]
pIC50: 6.46
